This experiment concerns the target T1, human kinase Mps-1 (Homo sapiens, UniProt P33981).
T1 construct: N-terminally GST-tagged human full length recombinant Mps-1 kinase; GST (N); purchased Invitrogen, Karslruhe, Germany PV4071
T1 sequence (P33981 1-857): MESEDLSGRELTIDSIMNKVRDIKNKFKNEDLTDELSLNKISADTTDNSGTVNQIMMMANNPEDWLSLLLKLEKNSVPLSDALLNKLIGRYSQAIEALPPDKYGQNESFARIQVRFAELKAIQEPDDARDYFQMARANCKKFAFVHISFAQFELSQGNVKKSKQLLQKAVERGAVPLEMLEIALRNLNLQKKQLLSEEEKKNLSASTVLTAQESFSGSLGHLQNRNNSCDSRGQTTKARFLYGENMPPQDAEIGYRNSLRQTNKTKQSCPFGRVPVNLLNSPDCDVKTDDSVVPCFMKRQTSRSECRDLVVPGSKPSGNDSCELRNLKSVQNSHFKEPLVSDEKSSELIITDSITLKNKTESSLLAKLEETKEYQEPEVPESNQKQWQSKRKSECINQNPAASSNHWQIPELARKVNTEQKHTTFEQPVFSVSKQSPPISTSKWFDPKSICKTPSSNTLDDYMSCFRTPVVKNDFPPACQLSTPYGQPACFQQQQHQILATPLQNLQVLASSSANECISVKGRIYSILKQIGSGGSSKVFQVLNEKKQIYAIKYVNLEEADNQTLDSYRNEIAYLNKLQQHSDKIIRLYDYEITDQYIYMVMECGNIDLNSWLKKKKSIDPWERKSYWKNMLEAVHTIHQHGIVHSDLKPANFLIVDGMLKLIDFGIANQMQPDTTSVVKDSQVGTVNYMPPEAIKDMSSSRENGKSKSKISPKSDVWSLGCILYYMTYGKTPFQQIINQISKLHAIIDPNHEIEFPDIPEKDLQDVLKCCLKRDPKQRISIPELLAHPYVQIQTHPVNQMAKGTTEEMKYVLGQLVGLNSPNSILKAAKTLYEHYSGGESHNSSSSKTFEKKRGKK
The experiment in a line: Mps-1 kinase assay (TR-FRET). Type of experiment: biochemical. As to conditions: N-terminally GST-tagged human full length recombinant Mps-1; 10 μM ATP; 1 μM peptide substrate; 15 min pre-incubation; 60 min at 22° C. The essentials: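 TR-FRET read-out: after 1 h binding at 22° C, Eu-labelled anti-phospho-Ser/Thr antibody transfers to SA-XLent on the phosphorylated biotinylated peptide. The enzyme is GST-tagged full-length human Mps-1, typically about 1 nM final, in the linear range.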

Broadly, the IC50 is the concentration needed to halve the response being measured. For the compound `Cn1nccc1CNc1nc(-c2ccccc2)cn2c(-c3ccc(C(=O)NC4CC4)cc3)cnc12` [Example 2-54, N-cyclopropyl-4-(8-{[(1-methyl-1H-pyrazol-5-yl)methyl]amino}-6-phenylimidazo[1,2-a]pyrazin-3-yl)benzamide], the IC50 is 1.5 nM.

As for `O=C(NC1CC1)c1ccc(-c2cnc3c(NCc4cc[nH]n4)nc(-c4ccccc4)cn23)cc1` [Example 2-55, N-cyclopropyl-4-{6-phenyl-8-[(1H-pyrazol-3-ylmethyl)amino]imidazo[1,2-a]pyrazin-3-yl} benzamide], the IC50 stood at 2.7 nM.

As for `Cn1cc(CNc2nc(-c3ccccc3)cn3c(-c4ccc(C(=O)NC5CC5)cc4)cnc23)cn1` [Example 2-56, N-cyclopropyl-4-(8-{[(1-methyl-1H-pyrazol-4-yl)methyl]amino}-6-phenylimidazo[1,2-a]pyrazin-3-yl)benzamide], the half-inhibitory concentration (IC50) turned out to be 1.3 nM.

Consider `CCOC(C)CNc1nc(-c2ccccc2)cn2c(-c3ccc(C(=O)NC4CC4)cc3)cnc12` (stereo not drawn) [Example 2-57, N-cyclopropyl-4-{8-[(2-ethoxypropyl)amino]-6-phenylimidazo[1,2-a]pyrazin-3-yl}benzamide], for which the 50% inhibitory concentration (IC50) was found to be 2.3 nM.

Consider `CCC(CNc1nc(-c2ccccc2)cn2c(-c3ccc(C(=O)NC4CC4)cc3)cnc12)OC` (stereo not drawn) [Example 2-58, N-cyclopropyl-4-{8-[(2-methoxybutyl)amino]-6-phenylimidazo[1,2-a]pyrazin-3-yl}benzamide], for which the 50% inhibitory concentration (IC50) came out at 2.9 nM.

In the case of `O=C(NC1CC1)c1ccc(-c2cnc3c(NCc4sccc4Cl)nc(-c4ccccc4)cn23)cc1` [Example 2-59, 4-(8-{[(3-chlorothiophen-2-yl)methyl]amino}-6-phenylimidazo [1,2-a]pyrazin-3-yl)-N-cyclopropylbenzamide], the IC50 turned out to be 6.4 nM.

On to `O=C(NC1CC1)c1ccc(-c2cnc3c(NCc4ccc(Cl)s4)nc(-c4ccccc4)cn23)cc1` [Example 2-60, 4-(8-{[(5-chlorothiophen-2-yl)methyl]amino}-6-phenylimidazo [1,2-a]pyrazin-3-yl)-N-cyclopropylbenzamide], for which the IC50 was found to be 4.9 nM.

On to `N#Cc1cccc(CNc2nc(-c3ccccc3)cn3c(-c4ccc(C(=O)NC5CC5)cc4)cnc23)c1` [Example 2-61, 4-{8-[(3-cyanobenzyl)amino]-6-phenylimidazo[1,2-a]pyrazin-3-yl}-N-cyclopropylbenzamide], for which the IC50 came to 12.1 nM.

For the compound `O=C(NC1CC1)c1ccc(-c2cnc3c(NCCCF)nc(-c4ccccc4)cn23)cc1` [Example 2-62, N-cyclopropyl-4-{8-[(3-fluoropropyl)amino]-6-phenylimidazo[1,2-a]pyrazin-3-yl}benzamide], the IC50 was found to be 1.1 nM.

For `O=C(NC1CC1)c1ccc(-c2cnc3c(NCCc4nccs4)nc(-c4ccccc4)cn23)cc1` [Example 2-63, N-cyclopropyl-4-(6-phenyl-8-{[2-(1,3-thiazol-2-yl)ethyl]amino}imidazo[1,2-a]pyrazin-3-yl)benzamide], the concentration for half-maximal inhibition (IC50) worked out at 5.6 nM.

Consider `NS(=O)(=O)CCNc1nc(-c2ccccc2)cn2c(-c3ccc(C(=O)NC4CC4)cc3)cnc12` [Example 2-64, N-cyclopropyl-4-{6-phenyl-8-[(2-sulfamoylethyl)amino]imidazo[1,2-a]pyrazin-3-yl} benzamide], for which the half-inhibitory concentration (IC50) was 1 nM.

Consider `O=C(NC1CC1)c1ccc(-c2cnc3c(NCC4CCCCO4)nc(-c4ccccc4)cn23)cc1` (stereo not drawn) [Example 2-65, N-cyclopropyl-4-{6-phenyl-8-[(tetrahydro-2H-pyran-2-ylmethyl)amino]imidazo[1,2-a]pyrazin-3-yl}benzamide], for which the IC50 was 1.3 nM.

On to `O=C(NC1CC1)c1ccc(-c2cnc3c(NCC4CCCCC4)nc(-c4ccccc4)cn23)cc1` [Example 2-66, 4-{8-[(Cyclohexylmethyl)amino]-6-phenylimidazo[1,2-a]pyrazin-3-yl}-N-cyclopropylbenzamide], for which the IC50 amounted to 6.2 nM.

Consider `NCCCCNc1nc(-c2ccccc2)cn2c(-c3ccc(C(=O)NC4CC4)cc3)cnc12` [Example 2-67], for which the IC50 turned out to be 7.2 nM.

For the compound `NCCCNc1nc(-c2ccccc2)cn2c(-c3ccc(C(=O)NC4CC4)cc3)cnc12` [Example 2-68], the concentration for half-maximal inhibition (IC50) came out at 17.4 nM.

`NCCNc1nc(-c2ccccc2)cn2c(-c3ccc(C(=O)NC4CC4)cc3)cnc12` [Example 2-69, 4-{8-[(2-Aminoethyl)amino]-6-phenylimidazo[1,2-a]pyrazin-3-yl}-N-cyclopropylbenzamide]: the IC50 worked out at 54.8 nM.

`O=C(NC1CC1)c1ccc(-c2cnc3c(NCCCn4ccnc4)nc(-c4ccccc4)cn23)cc1` [Example 2-71, N-cyclopropyl-4-(8-{[3-(1H-imidazol-1-yl)propyl]amino}-6-phenylimidazo[1,2-a]pyrazin-3-yl)benzamide]: the half-inhibitory concentration (IC50) amounted to 4.1 nM.

As to `O=C(NC1CC1)c1ccc(-c2cnc3c(NCC4CCCC4)nc(-c4ccccc4)cn23)cc1` [Example 2-72, 4-{8-[(Cyclopentylmethyl)amino]-6-phenylimidazo[1,2-a]pyrazin-3-yl}-N-cyclopropylbenzamide], the IC50 is 2.5 nM.

Consider `O=C(NC1CC1)c1ccc(-c2cnc3c(NCC4CCC4)nc(-c4ccccc4)cn23)cc1` [Example 2-73, 4-{8-[(Cyclobutylmethyl)amino]-6-phenylimidazo[1,2-a]pyrazin-3-yl}-N-cyclopropylbenzamide], for which the IC50 amounted to 2.3 nM.

For the compound `O=C(NC1CC1)c1ccc(-c2cnc3c(NCc4ccsc4)nc(-c4ccccc4)cn23)cc1` [Example 2-74, N-cyclopropyl-4-{6-phenyl-8-[(3-thienylmethyl)amino]imidazo[1,2-a]pyrazin-3-yl}benzamide], the half-maximal inhibitory concentration (IC50) is 3.7 nM.

With `O=C(NC1CC1)c1ccc(-c2cnc3c(NCc4ccco4)nc(-c4ccccc4)cn23)cc1` [Example 2-75, N-cyclopropyl-4-{8-[(2-furylmethyl)amino]-6-phenylimidazo[1,2-a]pyrazin-3-yl}benzamide], the IC50 turned out to be 3.2 nM.

For the compound `O=C(NC1CC1)c1ccc(-c2cnc3c(NCc4ccoc4)nc(-c4ccccc4)cn23)cc1` [Example 2-76, N-cyclopropyl-4-{8-[(3-furylmethyl)amino]-6-phenylimidazo[1,2-a]pyrazin-3-yl}benzamide], the 50% inhibitory concentration (IC50) came out at 2.8 nM.

In the case of `O=C(NC1CC1)c1ccc(-c2cnc3c(NCc4cccs4)nc(-c4ccccc4)cn23)cc1` [Example 2-77, N-cyclopropyl-4-{6-phenyl-8-[(2-thienylmethyl)amino]imidazo[1,2-a]pyrazin-3-yl}benzamide], the half-inhibitory concentration (IC50) was 2.5 nM.

Take `O=C(NC1CC1)c1ccc(-c2cnc3c(NCCCCO)nc(-c4ccccc4)cn23)cc1` [Example 2-78, N-cyclopropyl-4-{8-[(4-hydroxybutyl)amino]-6-phenylimidazo[1,2-a]pyrazin-3-yl}benzamide]: the IC50 was 1.1 nM.

Turning to `NCCCCCNc1nc(-c2ccccc2)cn2c(-c3ccc(C(=O)NC4CC4)cc3)cnc12` [Example 2-79, 4-{8-[(5-Aminopentyl)amino]-6-phenylimidazo[1,2-a]pyrazin-3-yl}-N-cyclopropylbenzamide], the concentration for half-maximal inhibition (IC50) was 3.2 nM.

Consider `O=C(NC1CC1)c1ccc(-c2cnc3c(NCCOCCO)nc(-c4ccccc4)cn23)cc1` [Example 2-80, N-cyclopropyl-4-(8-{[2-(2-hydroxyethoxy)ethyl]amino}-6-phenylimidazo[1,2-a]pyrazin-3-yl)benzamide], for which the 50% inhibitory concentration (IC50) worked out at 6.2 nM.

Take `O=C(NC1CC1)c1ccc(-c2cnc3c(NC[C@@H](O)CO)nc(-c4ccccc4)cn23)cc1` [Example 2-81, N-cyclopropyl-4-(8-{[(2R)-2,3-dihydroxypropyl]amino}-6-phenylimidazo[1,2-a]pyrazin-3-yl)benzamide]: the IC50 amounted to 1.9 nM.

For `O=C(NC1CC1)c1ccc(-c2cnc3c(NC[C@H](O)CO)nc(-c4ccccc4)cn23)cc1` [Example 2-82, N-cyclopropyl-4-(8-{[(2S)-2,3-dihydroxypropyl]amino}-6-phenylimidazo[1,2-a]pyrazin-3-yl)benzamide], the IC50 is 4.4 nM.

Take `O=C(NC1CC1)c1ccc(-c2cnc3c(NCCSC(F)(F)F)nc(-c4ccccc4)cn23)cc1` [Example 2-83, N-cyclopropyl-4-[6-phenyl-8-({2-[(trifluoromethyl)sulfanyl]ethyl}amino)imidazo[1,2-a]pyrazin-3-yl]benzamide]: the IC50 was 5.4 nM.

In the case of `NCCCCCCNc1nc(-c2ccccc2)cn2c(-c3ccc(C(=O)NC4CC4)cc3)cnc12` [Example 2-84, 4-{8-[(6-Aminohexyl)amino]-6-phenylimidazo[1,2-a]pyrazin-3-yl}-N-cyclopropylbenzamide], the IC50 was 1.6 nM.

The values above are taken from patent US20140187548A1, “6 SUBSTITUTED IMIDAZOPYRAZINES FOR USE AS MPS-1 AND TKK INHIBITORS IN THE TREATMENT OF HYPERPROLIFERATIVE DISORDERS” (BAYER INTELLECTUAL PROPERTY GMBH, priority 2010, published 2014).
